Our source for the IC50 values is US20240383875A1, “Benzimidazole Pyridine Derivatives” (Hoffmann-La Roche Inc., priority 2022, published 2024).

Usually IC50 stands for the concentration needed to halve the response being measured.

What all share (assay type): biochemical
One assay addresses SIK1 (Homo sapiens, UniProt P57059). The assay is described as follows: Enzymatic activity assay SIK1, RapidFire mass spectrometry (phosphorylation of CHK-peptide). Conditions: RapidFire MS, inhibition of SIK1; read-out: SIK1 RF IC50. Here is the method: (§1) Assay description SIK1-3, RapidFire:
(§2) In the presence of SIK2 (resp. SIK1 or SIK3) and ATP the CHK-peptide ([…] with C-terminal arginine amide modification) were phosphorylated at one of the four feasible serine's. Only one phosphorylation is observed under the assay conditions. 60 nl of each compound dilution series (12 point; dilution factor 3, generally 30 μM to 170 pM) in DMSO were transferred by acoustic dispensing to the assay plate and 30 min pre-incubated (ambient temperature) after the addition of 5 μl SIK1 (5 nM) resp. 5 μl SIK2 (0.5 nM) or 7 μl SIK3 (1.5 nM) in assay-buffer (12.5 mM HEPES (pH 7.0), 10 mM magnesium acetate, 0.005% BSA). 10 μM CHK-peptide solution and 5 μl 100 μM ATP for SIK1 & SIK2 resp. 3 μl for SIK3 in assay-buffer were added and incubated ambient for 45 min. 40 μl 0.125% formic acid in water were added to quench the reaction. RapidFire (RF) Mass Spectrometry was utilized for data generation as described below. The multiple charged species (3-5 charges) for the phosphorylated and non-phosphorylated form measured by MRM (Multiple Reaction Monitoring; API5000 or 6500+) or EIC (Extracted Ion Current; QToF) were summed up and the ratio calculated (sum phosphorylated species/sum all species) for data evaluation. Normalization was performed by Genedata software based on the non-inhibition control DMSO and the commercially available SIK inhibitor @ 1 μM YKL-05-099 (CAS number 1936529-65-5). The results of the assay are expressed in half-maximal inhibitory concentrations (IC50s) and are summarized below in Table 1.
(§3) Samples were aspirated by vacuum for max. 600 ms and loaded to C4-cartridge (Agilent; #G9203A) for 3000 ms@1.5 ml/min with 0.1% formic acid in water. Afterwards samples were transferred to the APT5000 (APT6500+) or QToF mass spectrometer for 4000 ms@1.25 ml/min with 90% acetonitrile; 10% water; 0.007% TFA; 0.093 formic acid. The cartridge was reconditioned for additional 500 ms with 0.1% formic acid in water
(§4) All MS analyses using the following MS-setup in MRM mode: Electrospray positive; Ion Spray Voltage: 4000V; Temperature: 550° C.; Collision Gas: 5; Curtain Gas: 15; Gas1: 40; Gas 2: 42; EP: 10
(§5) MS-Setup Agilent QToF 6545
(§6) All MS analyses using the following MS-setup in Mode MS: Dual AJS Electrospray positive; VCap: 3000V; Drying & Sheath gas: 340° C.@81/min; Nebulizer: 60 psig; Nozzle Voltage: 2000V; Fragmentor: 130V; Skimmer: 35V; Oct1 RF Vpp: 700V; Ref masses on@5spectra/s

A further assay deals with SIK3 (Homo sapiens, UniProt Q9Y2K2). Briefly: Enzymatic activity assay SIK3, RapidFire mass spectrometry (phosphorylation of CHK-peptide). The following applies: RapidFire MS, inhibition of SIK3; read-out: SIK3 RF IC50. The procedure: as §1, §2, §3, §4, §5, §6
The target in a further assay is SIK2 (Homo sapiens, UniProt Q9H0K1). Briefly: Enzymatic activity assay SIK2, RapidFire mass spectrometry (phosphorylation of CHK-peptide). Conditions: RapidFire MS, inhibition of SIK2; read-out: SIK2 RF IC50. The procedure:
as §1
as §2, with “Only one phosphorylation is observed under the assay conditions. 60 nl of each compound dilution series (12 point; dilution factor 3, generally 30 μM to 170 pM) in DMSO were transferred by acoustic dispensing to the assay plate and 30 min pre-incubated (ambient temperature) after the addition of 5 μl SIK1 (5 nM) resp.” left out, “1936529-65-5).” for “1936529-65-5). The results of the assay are expressed in half-maximal inhibitory concentrations (IC50s) and are summarized below in Table 1.”
as §3, §4, §5, §6

Sequence of SIK2 (Q9H0K1 whole entry): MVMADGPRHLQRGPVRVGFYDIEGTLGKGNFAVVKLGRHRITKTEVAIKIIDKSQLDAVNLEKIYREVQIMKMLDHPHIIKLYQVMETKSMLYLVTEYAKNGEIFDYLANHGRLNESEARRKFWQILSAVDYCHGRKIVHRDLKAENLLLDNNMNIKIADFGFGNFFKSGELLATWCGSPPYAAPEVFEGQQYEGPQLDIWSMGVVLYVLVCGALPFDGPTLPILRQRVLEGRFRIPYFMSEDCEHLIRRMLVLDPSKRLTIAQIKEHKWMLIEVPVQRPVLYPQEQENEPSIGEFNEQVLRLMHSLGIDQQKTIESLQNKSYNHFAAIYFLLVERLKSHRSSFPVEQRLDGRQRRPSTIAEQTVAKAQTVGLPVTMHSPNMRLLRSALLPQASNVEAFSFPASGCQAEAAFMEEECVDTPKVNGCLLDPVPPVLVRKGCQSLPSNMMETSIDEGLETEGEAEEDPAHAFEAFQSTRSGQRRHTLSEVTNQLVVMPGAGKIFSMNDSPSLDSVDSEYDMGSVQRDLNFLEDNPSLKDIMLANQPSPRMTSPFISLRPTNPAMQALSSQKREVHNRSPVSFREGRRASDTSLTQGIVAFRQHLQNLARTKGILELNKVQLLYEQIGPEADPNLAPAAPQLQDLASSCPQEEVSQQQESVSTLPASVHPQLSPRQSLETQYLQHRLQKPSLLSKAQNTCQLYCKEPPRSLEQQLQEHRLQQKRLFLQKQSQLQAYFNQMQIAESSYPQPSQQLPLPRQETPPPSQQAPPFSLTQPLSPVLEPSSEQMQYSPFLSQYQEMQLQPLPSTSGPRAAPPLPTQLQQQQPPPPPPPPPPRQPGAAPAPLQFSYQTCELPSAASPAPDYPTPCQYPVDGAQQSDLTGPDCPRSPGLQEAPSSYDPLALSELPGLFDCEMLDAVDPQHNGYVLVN
Sequence of SIK1 (P57059 whole entry): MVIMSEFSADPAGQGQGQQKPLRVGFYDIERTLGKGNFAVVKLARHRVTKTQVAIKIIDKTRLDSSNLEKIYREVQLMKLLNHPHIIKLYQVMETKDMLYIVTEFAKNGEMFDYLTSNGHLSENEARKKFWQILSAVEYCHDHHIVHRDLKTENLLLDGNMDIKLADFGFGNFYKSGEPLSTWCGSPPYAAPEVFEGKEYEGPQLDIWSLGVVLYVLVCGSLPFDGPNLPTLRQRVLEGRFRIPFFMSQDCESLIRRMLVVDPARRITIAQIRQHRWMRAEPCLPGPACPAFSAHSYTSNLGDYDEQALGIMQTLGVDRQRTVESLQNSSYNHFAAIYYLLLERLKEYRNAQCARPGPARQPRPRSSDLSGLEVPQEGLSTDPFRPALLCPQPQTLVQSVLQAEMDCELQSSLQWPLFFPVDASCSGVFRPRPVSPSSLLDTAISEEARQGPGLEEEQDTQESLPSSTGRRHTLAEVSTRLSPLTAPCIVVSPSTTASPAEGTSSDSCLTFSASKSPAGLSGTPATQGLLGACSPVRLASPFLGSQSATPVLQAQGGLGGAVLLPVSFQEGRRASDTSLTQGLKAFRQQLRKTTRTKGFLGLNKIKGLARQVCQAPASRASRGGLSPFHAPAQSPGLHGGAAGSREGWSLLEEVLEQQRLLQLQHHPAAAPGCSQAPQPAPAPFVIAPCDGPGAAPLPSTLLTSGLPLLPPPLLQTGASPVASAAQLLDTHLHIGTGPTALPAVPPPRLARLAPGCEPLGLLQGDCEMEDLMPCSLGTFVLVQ
Sequence of SIK3 (Q9Y2K2 whole entry): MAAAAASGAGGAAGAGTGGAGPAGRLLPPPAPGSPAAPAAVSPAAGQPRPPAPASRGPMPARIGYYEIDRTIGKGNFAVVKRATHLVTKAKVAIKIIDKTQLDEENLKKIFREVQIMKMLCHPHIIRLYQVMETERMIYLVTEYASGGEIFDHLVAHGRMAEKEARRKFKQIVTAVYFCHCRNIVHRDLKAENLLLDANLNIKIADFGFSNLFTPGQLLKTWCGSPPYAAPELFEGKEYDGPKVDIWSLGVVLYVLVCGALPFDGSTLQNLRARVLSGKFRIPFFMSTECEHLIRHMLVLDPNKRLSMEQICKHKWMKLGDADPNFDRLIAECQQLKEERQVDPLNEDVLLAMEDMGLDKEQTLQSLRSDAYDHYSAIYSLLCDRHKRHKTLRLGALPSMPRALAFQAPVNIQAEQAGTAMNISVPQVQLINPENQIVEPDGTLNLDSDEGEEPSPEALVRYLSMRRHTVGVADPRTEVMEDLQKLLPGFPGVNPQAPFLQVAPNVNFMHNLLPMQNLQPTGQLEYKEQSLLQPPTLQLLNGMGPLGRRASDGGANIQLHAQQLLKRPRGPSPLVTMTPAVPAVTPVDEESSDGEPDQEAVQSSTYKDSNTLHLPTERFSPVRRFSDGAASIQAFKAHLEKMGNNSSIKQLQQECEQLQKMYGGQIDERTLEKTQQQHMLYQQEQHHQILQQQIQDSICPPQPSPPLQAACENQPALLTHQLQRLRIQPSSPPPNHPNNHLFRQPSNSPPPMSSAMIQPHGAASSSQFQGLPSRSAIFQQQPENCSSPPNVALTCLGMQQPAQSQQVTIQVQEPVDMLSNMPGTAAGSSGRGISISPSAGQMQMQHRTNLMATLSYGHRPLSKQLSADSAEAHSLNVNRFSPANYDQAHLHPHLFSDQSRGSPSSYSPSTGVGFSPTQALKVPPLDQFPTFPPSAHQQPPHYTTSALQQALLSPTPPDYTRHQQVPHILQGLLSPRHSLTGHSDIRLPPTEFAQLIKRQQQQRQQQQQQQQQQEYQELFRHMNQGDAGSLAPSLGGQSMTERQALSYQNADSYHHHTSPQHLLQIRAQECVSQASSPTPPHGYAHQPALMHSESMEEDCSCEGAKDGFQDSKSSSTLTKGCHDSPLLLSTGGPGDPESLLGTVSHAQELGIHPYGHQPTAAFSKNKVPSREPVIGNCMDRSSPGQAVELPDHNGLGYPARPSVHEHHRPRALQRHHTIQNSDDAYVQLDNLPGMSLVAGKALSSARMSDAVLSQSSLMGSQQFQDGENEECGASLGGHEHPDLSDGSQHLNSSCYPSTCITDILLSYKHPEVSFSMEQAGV

On to `COc1cc2ncn(-c3ccc(C(O)C4CC4)c(-c4cccc(Cl)c4)n3)c2cc1OC` (stereo not drawn) [Example 25, (2-(3-Chlorophenyl)-6-(5,6-dimethoxy-1H-benzo[d]imidazol-1-yl)pyridin-3-yl)(cyclopropyl)methanol], for which the IC50 at SIK1 was 777 nM; on SIK3, 987 nM; on SIK2, 605 nM.

Turning to `COc1cc2ncn(-c3ccc(CO)c(N4CCOCC4)n3)c2cc1OC` [Example 26, (6-(5,6-Dimethoxy-1H-benzo[d]imidazol-1-yl)-2-morpholinopyridin-3-yl)methanol], the concentration for half-maximal inhibition (IC50) on SIK1 came to 806 nM; at SIK3, 1440 nM; on SIK2 it was 699 nM.

In the case of `COc1cc2ncn(-c3ccc(CO)c(N4CCCC4)n3)c2cc1OC` [Example 27, (6-(5,6-Dimethoxy-1H-benzo[d]imidazol-1-yl)-2-(pyrrolidin-1-yl)pyridin-3-yl)methanol], the IC50 at SIK1 came out at 535 nM; at SIK3, 761 nM; on SIK2 it was 473 nM.

As for `COc1cc2ncn(-c3ccc(CO)c(N4CCCCC4)n3)c2cc1OC` [Example 28, (6-(5,6-Dimethoxy-1H-benzo[d]imidazol-1-yl)-2-(piperidin-1-yl)pyridin-3-yl)methanol], the concentration for half-maximal inhibition (IC50) at SIK1 worked out at 326 nM; on SIK3, 713 nM; on SIK2 it was 268 nM.

`COc1cc2ncn(-c3ccc(CO)c(NCCCCCO)n3)c2cc1OC` [Example 32, 5-((6-(5,6-Dimethoxy-1H-benzo[d]imidazol-1-yl)-3-(hydroxymethyl)pyridin-2-yl)amino)pentan-1-ol]: the half-maximal inhibitory concentration (IC50) at SIK1 turned out to be 373 nM; on SIK3, 1400 nM; at SIK2 it was 259 nM.

With `COc1cc2ncn(-c3ccc(CO)c(N4CCCC4=O)n3)c2cc1OC` [Example 33, 1-(6-(5,6-Dimethoxy-1H-benzo[d]imidazol-1-yl)-3-(hydroxymethyl)pyridin-2-yl)pyrrolidin-2-one], the IC50 at SIK1 turned out to be 320 nM; on SIK3, 1940 nM; on SIK2, 402 nM.

Take `COc1cc2ncn(-c3ccc(CO)c(NCCCCO)n3)c2cc1OC` [Example 34, 4-((6-(5,6-Dimethoxy-1H-benzo[d]imidazol-1-yl)-3-(hydroxymethyl)pyridin-2-yl)amino)butan-1-ol]: the IC50 at SIK1 amounted to 508 nM; on SIK3, 1680 nM; on SIK2 it was 377 nM.

On to `COc1cc2ncn(-c3ccc([C@H](C)O)c(-c4ccccc4C(N)=O)n3)c2cc1OC` [Example 35, (S)-2-(6-(5,6-Dimethoxy-1H-benzo[d]imidazol-1-yl)-3-(l-hydroxyethyl)pyridin-2-yl)benzamide], for which the results for the IC50 at SIK1, at SIK3 and on SIK2 were 13400 nM, 7470 nM and 6080 nM, respectively.

Regarding `COc1cc2ncn(-c3ccc([C@@H](C)O)c(-c4ccccc4C(N)=O)n3)c2cc1OC` [Example 36, (R)-2-(6-(5,6-Dimethoxy-1H-benzo[d]imidazol-1-yl)-3-(1-hydroxyethyl)pyridin-2-yl)benzamide], the IC50 turned out to be 23900 nM at SIK1, 13600 nM on SIK3 and 9680 nM at SIK2.

Consider `COc1cc2ncn(-c3ccc([C@H](C)O)c(-c4cccc(C#N)c4)n3)c2cc1OC` [Example 37, (S)-3-(6-(5,6-Dimethoxy-1H-benzo[d]imidazol-1-yl)-3-(l-hydroxyethyl)pyridin-2-yl)benzonitrile], for which the IC50 at SIK1 amounted to 15 nM; on SIK3, 22.4 nM; at SIK2 it was 4.9 nM.

For the compound `COc1cc2ncn(-c3ccc([C@@H](C)O)c(-c4cccc(C#N)c4)n3)c2cc1OC` [Example 38, (R)-3-(6-(5,6-Dimethoxy-1H-benzo[d]imidazol-1-yl)-3-(l-hydroxyethyl)pyridin-2-yl)benzonitrile], the IC50 at SIK1 stood at 158 nM; at SIK3, 259 nM; at SIK2, 58.4 nM.

For the compound `COc1cc2ncn(-c3ccc([C@H](C)O)c(-c4ccc(C#N)cc4)n3)c2cc1OC` [Example 39, (S)-4-(6-(5,6-Dimethoxy-1H-benzo[d]imidazol-1-yl)-3-(l-hydroxyethyl)pyridin-2-yl)benzonitrile], the IC50 amounted to 152 nM on SIK1, 178 nM on SIK3 and 24.9 nM on SIK2.

On to `COc1cc2ncn(-c3ccc([C@@H](C)O)c(-c4ccc(C#N)cc4)n3)c2cc1OC` [Example 40, (R)-4-(6-(5,6-Dimethoxy-1H-benzo[d]imidazol-1-yl)-3-(1-hydroxyethyl)pyridin-2-yl)benzonitrile], for which the IC50 on SIK1 was determined as 1030 nM; on SIK3, 1660 nM; at SIK2, 517 nM.

With `COc1cc2ncn(-c3ccc([C@H](C)O)c(-c4ccn(C)c(=O)c4)n3)c2cc1OC` [Example 41, (S)-6-(5,6-Dimethoxy-1H-benzo[d]imidazol-1-yl)-3-(1-hydroxyethyl)-1′-methyl-[2,4′-bipyridin]-2′(1′H)-one], the 50% inhibitory concentration (IC50) on SIK1 was determined as 197 nM; on SIK3, 300 nM; on SIK2, 91.7 nM.

Consider `COc1cc2ncn(-c3ccc([C@@H](C)O)c(-c4ccn(C)c(=O)c4)n3)c2cc1OC` [Example 42, (R)-6-(5,6-Dimethoxy-1H-benzo[d]imidazol-1-yl)-3-(1-hydroxyethyl)-1′-methyl-[2,4′-bipyridin]-2′(1′H)-one], for which the 50% inhibitory concentration (IC50) on SIK1 was found to be 1300 nM; at SIK3 it was 2060 nM; at SIK2, 1040 nM.

With `CC(O)c1ccc(-n2cnc3cc(OCCN4CCOCC4)ccc32)nc1Oc1ccccc1` (stereo not drawn) [Example 53, 1-[6-[5-(2-Morpholinoethoxy)benzimidazol-1-yl]-2-phenoxy-3-pyridyl]ethanol], the IC50 was found to be 2150 nM at SIK1, 405 nM at SIK3 and 320 nM at SIK2.

`CC(O)c1ccc(-n2cnc3cc(OCCN4CCOCC4)ccc32)nc1Nc1ccccc1` (stereo not drawn) [Example 55, 1-[2-Anilino-6-[5-(2-morpholinoethoxy)benzimidazol-1-yl]-3-pyridyl]ethanol]: the IC50 came out at 1290 nM at SIK1, 130 nM at SIK3 and 103 nM on SIK2.

As for `CC(O)c1ccc(-n2cnc3cc(OCCN4CCOCC4)ccc32)nc1-n1ccc(C(F)(F)F)n1` (stereo not drawn) [Example 62, 1-[6-[5-(2-Morpholinoethoxy)benzimidazol-1-yl]-2-[3-(trifluoromethyl)pyrazol-1-yl]-3-pyridyl]ethanol], the 50% inhibitory concentration (IC50) at SIK1 turned out to be 1670 nM; on SIK3, 176 nM; at SIK2, 189 nM.

`COc1cc2ncn(-c3ccc(C(C)O)c(-n4ccc(C(F)(F)F)n4)n3)c2cc1OC` (stereo not drawn) [Example 63, 1-[6-(5,6-Dimethoxybenzimidazol-1-yl)-2-[3-(trifluoromethyl)pyrazol-1-yl]-3-pyridyl]ethanol]: the IC50 amounted to 93 nM at SIK1, 152 nM at SIK3 and 34.6 nM on SIK2.

For `Cc1cc(C#N)nn1-c1nc(-n2cnc3cc(N4CCN(C)CC4)ccc32)ccc1C(C)O` (stereo not drawn) [Example 65, 1-[3-(1-Hydroxyethyl)-6-[5-(4-methylpiperazin-1-yl)benzimidazol-1-yl]-2-pyridyl]-5-methyl-pyrazole-3-carbonitrile], the IC50 on SIK1 came to 652 nM; at SIK3, 81.9 nM; on SIK2, 63.7 nM.
